From patent US9718809B2, “Bisarylsulfonamides useful in the treatment of inflammation and cancer” (Kancera AB, priority 2011, dated 2017)
pIC50: −log10 of the molar value. Counter-ions that a name gives are not always drawn.

The molecules below were run on F-2,6-P2 in PANC-1 cells (assay: Quantification of F-2,6-P2 (Van Schaftingen coupled enzyme assay) in PANC-1 cells). Conditions: Homo sapiens; PANC-1 cells; read-out: IC50 based on quantification of F-2,6-P2.
Type: cell-based, human
From the text: A method for quantification of F-2,6-P2 has been described by Van Schaftingen et al. (1982) Eur. J. Biochem. 129, 191-5. This sensitive assay is based on the potent activation of pyrophosphate dependent phosphofructokinase-1 (PPi-PFK) from potato tubers by F-2,6-P2. The use of a series of coupled enzymes leads to a consumption of NADH (nicotinamide adenine dinucleotide) that can be followed spectrophotometrically (an updated protocol is available in Van Schaftingen, (1984) Methods of Enzymatic Analysis (Bergmeyer, H. U., ed.), 3rd edn., vol. 6, pp. 335-341, Verlag Chemie, Weinheim). A protocol for measurements in 96-well microtiter plate format is also available (Bruni et al., (1989) Anal. Biochem. 178, 324-6).
The levels of F-2,6-P2 have been determined using the van Shaftingen assay as described in the protocol below, in six different cancer cell lines endogenously expressing varying levels of the different isoforms of PFK-2/BPase-2 (MCF-7, PANC-1, NUGC-3, SW480, SW620 and MIA PaCa-2). All reagents were purchased from commercial sources or prepared in-house.
Cell line B (PANC-1, human pancreatic carcinoma cell line): PANC-1 cells (ATCC-CRL-1469), lot. no. 58564651. Cells were seeded at a concentration of ˜250 000 cells/mL in 100 μL growth medium (˜25 000 cells/well).
Growth medium (cell lines B-F): Dulbecco's Modified Eagle's Medium, DMEM, VWR, LONZ12-604F; 10% FBS, Invitrogen, 10270-106.
Starvation medium (cell lines A-F): DMEM/F12 without phenol red and glucose free, SVA, 991373; 0.25% FBS, Invitrogen, 10270-106.
Induction medium (cell lines A-F): DMEM/F12 without phenol red and glucose free, SVA, 991373; 0.25% FBS, Invitrogen, 10270-106 (same as starvation medium).
Cells were seeded in 96-well Corning Costar tissue culture plates (CLS3595, Sigma-Aldrich) using the concentrations specified above for the different cell lines A-F and incubated over night at 37° C. and 5% CO2. Row A in the plate was left empty and the cell lines added to rows B-H. Next day the growth medium was discarded and replaced with 100 μL starvation medium. The plates were incubated for 18 h at 37° C. and 5% CO2. After 18 h of starvation the cells were induced with 100 μL compound or control solutions. Compounds were either tested in two concentrations (50 μM and 10 μM) or in dose response curves starting from 50 μM. The final DMSO concentration in assay plates was 0.5%. Also a dose response curve of a reference inhibitor was included in row H on each plate. All compounds were tested in duplicate plates. Compounds (in 96 well CLS 3365, Sigma-Aldrich plates) were serial diluted in DMSO from 10 mM compound DMSO stock solutions with Janus (automated liquid handling workstation from PerkinElmer). Five μL were transferred to a Greiner deep well plate (736-0155, VWR) with 495 μL starvation medium. The final start concentration of compounds in the dilution plate was 100 μM, 1% DMSO. For compounds tested as single points, 10 mM compound solutions were diluted five fold in DMSO to 2 mM, followed by the transfer of 5 μL to separate dilution plates with 495 μL starvation medium. The final concentrations of compounds in these dilution plates were 100 or 20 μM, respectively, and final concentration of DMSO was 1%. The plates were incubated at 37° C. and 5% CO2 for 1 h, followed by the addition of 10 μL 20 mM D-glucose in starvation medium. Controls, with and without 1 mM glucose, were included in row B. The final assay volume was 210 μL per well. After 2 h of incubation at 37° C. and 5% CO2, the supernatants were discarded and the cells lysed by the addition of 25 μL 250 mM NaOH. The plates were incubated at 37° C. and 5% CO2 for 5 min followed by an addition of 75 μL MilliQ dH2O. The supernatants were further diluted with 210 μL MilliQ dH2O to a final concentration of 20 mM NaOH. 200 μL were transferred to NUNC 96-well plates (7322661, VWR) and the plates were sealed and stored at −20° C. until analysis. […]

| Structure (SMILES) | pIC50 |
| --- | --- |
| COC(=O)c1ccc(NS(=O)(=O)c2cccc(-c3ccccc3)c2)cc1O [Example 87, Methyl 4-[(biphenyl-3-ylsulfonyl)amino]-2-hydroxybenzoate] | 5.80 |
| COC(=O)c1ccc(NS(=O)(=O)c2ccc(CNC(=O)c3ccccc3)s2)cc1O [Example 41, Methyl 2-hydroxy-4-{[(5-{[(phenylcarbonyl)amino]methyl}thiophen-2-yl)sulfonyl]amino}benzoate] | 4.72 |
| COC(=O)c1ccc(NS(=O)(=O)c2cc(C)c(Br)s2)cc1O [Example 58, Methyl 4-{[(5-bromo-4-methylthiophen-2-yl)sulfonyl]amino}-2-hydroxybenzoate] | 5.25 |
| COC(=O)c1ccc(NS(=O)(=O)c2c(Cl)sc(Cl)c2C)cc1O [Example 53, Methyl 4-{[(2,5-dichloro-4-methyl-3-thienyl)sulfonyl]amino}-2-hydroxybenzoate] | 5.51 |
| O=C(OC1CCN(Cc2ccccc2)C1)c1ccc(NS(=O)(=O)c2c(Cl)sc(Cl)c2Cl)cc1O (stereo not drawn) [Example 204, 1-Benzylpyrrolidin-3-yl 2-hydroxy-4-{[(2,4,5-trichloro-3-thienyl)sulfonyl]amino}benzoate] | 5.74 |
| O=C(OCCCN1CCOCC1)c1ccc(NS(=O)(=O)c2cc(-c3cc(F)ccc3O)c(Cl)s2)cc1O [Example 213, 3-Morpholin-4-ylpropyl 4-({[5-chloro-4-(5-fluoro-2-hydroxyphenyl)-2-thienyl]sulfonyl}amino)-2-hydroxybenzoate trifluoroacetate] | 6.22 |
| COC(=O)c1ccc(NS(=O)(=O)c2cc3ccccc3o2)cc1O [Example 9, Methyl 4-[(1-benzofuran-2-ylsulfonyl)amino]-2-hydroxybenzoate] | 4.71 |
| O=C(OCCCN1CCOCC1)c1ccc(NS(=O)(=O)c2cc(Cl)cc(Cl)c2)cc1O [Example 187, 3-Morpholin-4-ylpropyl 4-{[(3,5-dichlorophenyl)sulfonyl]amino}-2-hydroxybenzoate trifluoroacetate] | 5.17 |
| COC(=O)c1ccc(NS(=O)(=O)c2ccc(C(F)(F)F)cc2)cc1O [Example 16, Methyl 2-hydroxy-4-({[4-(trifluoromethyl)phenyl]sulfonyl}amino)benzoate] | 5.34 |
| COC(=O)c1ccc(NS(=O)(=O)c2cccc(C(=O)OC(C)C)c2)cc1O [Example 137, Methyl 2-hydroxy-4-[({3-[(1-methylethoxy)carbonyl]phenyl}sulfonyl)amino]benzoate] | 4.95 |

Same assay, conditions: at 12.5-50 μM in PANC-1 cells

| Structure (SMILES) | inhibition (F-2,6-P2 levels) [%] |
| --- | --- |
| CC(=O)Oc1cc(NS(=O)(=O)c2cccc3ccccc23)ccc1C(=O)OCc1ccccc1 [Example 140, Benzyl 2-acetoxy-4-[(1-naphthylsulfonyl)amino]benzoate] | ≥ 50 |
| CN1CCN(CCCOC(=O)c2ccc(NS(=O)(=O)c3cc(Cl)c(Cl)s3)cc2O)CC1.O=C(O)C(F)(F)F [Example 65, 3-(4-Methylpiperazin-1-yl)propyl 4-{[(4,5-dichlorothiophen-2-yl)sulfonyl]amino}-2-hydroxybenzoate trifluoroacetate] | ≥ 50 |
| COC(=O)c1ccc(NS(=O)(=O)c2cccc(-c3ccc(C(F)(F)F)cc3)c2)cc1O [Example 100, Methyl 2-hydroxy-4-({[4′-(trifluoromethyl)biphenyl-3-yl]sulfonyl}amino)benzoate] | ≥ 50 |
| COCc1cccc(OCCOC(=O)c2ccc(NS(=O)(=O)c3cc(Cl)c(Cl)s3)cc2O)c1 [Example 227, 2-[3-(Methoxymethyl)phenoxy]ethyl 4-{[(4,5-dichloro-2-thienyl)sulfonyl]amino}-2-hydroxybenzoate] | ≥ 50 |
| COC(=O)c1cccc(-c2cc(S(=O)(=O)Nc3ccc(C(=O)OC)c(O)c3)sc2Cl)c1 [Example 77, Methyl 4-[({5-chloro-4-[3-(methoxycarbonyl)phenyl]thiophen-2-yl}sulfonyl)amino]-2-hydroxybenzoate] | ≥ 50 |
